Measurements: patent publication US12383653B2, “Neutral multidomain peptide hydrogels and uses thereof” (William Marsh Rice University, priority 2018, dated 2025)
“Also recorded” adds a separate entry of the source. Where a SMILES comes first, the peptide text is derived from it. [ ]: non-standard residue; d: D form. Hyp = O=C(O)[C@@H]1C[C@@H](O)CN1

Columns and labels:
[1] = Hydrogel formation (inverted-vial test, pH, ionic strength, buffers); type: physicochemical
Description: Hydrogel Formation. Peptide solutions of O5 were prepared at 1% by weight (4.2 mM) in 149 mM sucrose and 0.5×HBSS. This buffer system was chosen to be consistent with prior MDP experiments and find optimum gelling conditions for future in vivo and in vitro work. Peptide solutions were sonicated using a Microson Ultrasonic Cell Disruptor with a 2 mm microprobe. The instrument frequency was 22.5 kHz and a power output up to 10 watts (RMS) was used. Solutions were sonicated at room temperature for 1 or 10 cycles, where each cycle consisted of 10 pulses and 1 min relaxation time between cycles. For the study of hydrogelation of O5, K2 and E2 at different pH values and ionic strength, 1% by weight peptide solutions were prepared in deionized water, PBS, or HBSS. pH was adjusted using HCl or NaOH 0.1 M solutions.

[2] = Oscillatory rheology of 1 wt.% hydrogel; type: physicochemical
Description: Oscillatory Rheology. Rheological properties of O5 hydrogel were analyzed by oscillatory rheology using a TA Instruments AR-G2 rheometer (TA Instruments, New Castle, DE). Hydrogels were prepared 24 h before the analysis as described above. 150 μL of 1% by weight peptide hydrogels were transferred from a cut syringe onto the rheometer stage equipped with a 12 mm stainless-steel parallel plate set to a 1000 μm gap height. The following program was used to monitor the storage modulus (G′) and loss modulus (G″) under various conditions as has been previously published (Li et al., 2017). Strain sweep analysis was performed using an applied strain of 0.01%-200% at a frequency of 1 rad/s. Frequency sweep analysis was performed under 1% strain at 0.1-100 rad/s. Shear recovery analysis was performed by subjecting the peptide sample to 1% strain for 20 min, then 200% for 1 min, and finally 1% for 20 min, allowing for disruption of the hydrogel and monitoring of G′ and G″ recovery.

[3] = Secondary structure estimation from circular dichroism in TFE, least square linear method; type: physicochemical; conditions: TFE at 25° C., 1 wt.%
Description: Circular Dichroism (CD) spectroscopy. For secondary structure characterization, peptide solutions of 1% by weight (molar concentration is included in Table 2) were prepared in 2,2,2-trifluoroethanol (TFE, Sigma Aldrich, St. Louis, MO). CD spectra acquisition was performed in a CD Jasco J-810 spectropolarimeter (Jasco Inc., Easton, MD) using a 0.01 mm cuvette. Data were collected at room temperature from 180 to 250 nm at a speed of 50 nm/min, with a 0.1 nm data pitch and the spectra were averaged over 5 scans. To study the hydrogelation of O5, 1% by weight peptide solutions were made in 149 mM sucrose solution in 0.5× Hank's Balanced Salt Solution (HBSS, Life Technologies) and analyzed as previously described.
To estimate the secondary structure of O peptide series, data fitting using the least square linear method was performed in MATLAB (Mathworks, Natick, MA). (Hyp)6, O1(SL)6O1 and K2(SL)6K2 were used as basis spectra for polyproline type II, β-sheet and α-helix, respectively (FIG. 7).

[4] = 3D culture cytocompatibility, Calcein AM / Ethidium homodimer-1 viability and cell morphology; type: cell-based; conditions: mouse; day 1 after encapsulation, 1 wt.% hydrogel; read-out: percentage of viable cells
Description: (§1) Cytocompatibility and cell viability studies. All cell culture materials, not otherwise specified, were purchased from Gibco, Life Technologies. NIH-3T3 fibroblast cells were cultured in Dulbecco's Modified Eagle Medium (DMEM) supplemented with 10% Fetal Bovine Serum (FBS), 2% L-glutamine (200 mM), 1% sodium pyruvate (100 mM), and 1% pen-strep solution (5000 units/mL of penicillin and 5 mg/mL of streptomycin, Sigma-Aldrich, St. Louis, MO). Cells were maintained at 37° C. and 5% CO2 with humidity and split when reaching 80%-90% confluency by treatment with 0.25% trypsin-EDTA and neutralization with complete media. Cells were centrifuged for 6 min at 1600 rpm, then the cell pellet was dispersed in HBSS, counted and adjusted to the required concentration. 3D cell culture in K2 hydrogel was achieved by mixing a 2% by weight peptide stock solution in 298 mM sucrose with a cell suspension of 2×10^6 cells/mL in HBSS. The final concentration was 1% by weight K2 hydrogel in 149 mM sucrose and 0.5×HBSS with 1×10^6 cells/mL. For O5 peptide, hydrogel was prepared by sonication using only 90% of the required 149 mM sucrose-0.5×HBSS to obtain a 1% by weight concentration, the remaining 10% was added as a cell suspension, and mixed by pipetting into the gel to obtain a final concentration of 1×10^6 cells/mL evenly distributed though the volume of the hydrogel. 70 μL of seeded hydrogels were cultured in a Lab-Tek 16-well glass chamber ([…], Thermo Fisher, Rochester, NY) with 200 μL of medium and fed every 2 days by replacing 100 μL with fresh media. Cell viability was analyzed using a live/dead viability kit (Invitrogen, Thermo Fisher, Carlsbad, CA). At specific time points, the medium was removed, and gels were rinsed with 1×PBS, then 100 μL of staining solution containing 2 μM Calcein AM and 4 μM Ethidium homodimer-1 in DPBS were added. Cells were incubated from 15 to 30 min and imaged using a Nikon A1 Rsi fluorescent confocal microscope (Nikon Instruments, Tokyo, Japan). Three z-stack images of 100 μm deep per sample were taken at 20× using a 488 nm green channel and 561 nm red channel lasers. Images were processed with NIS Element and live/dead cell counting was performed on Imaris 3D/4D Image Processing software (Bitplane, Concord, MA).
(§2) To evaluate the cell morphology, hydrogels were rinsed with PBS and fixed with 10% buffered formalin for 30 min Cells were treated with 0.5% Triton X for 10 min and 100 mM glycine for 10 min, followed by 10% Bovine Serum Albumin (BSA) in HBSS block solution. Then cells were stained for filamentous actin with Alexa Fluor® 488-Phalloidin and for the nuclei with ProLong® Gold Antifade DAPI mounting media. Cell in the hydrogels were analyzed by confocal microscopy using a 40× water objective and processed as described.

NIH-3T3 fibroblasts = assay: as above; type: cell-based
Description: as §1, §2

[5] = In vivo host response, subcutaneous injection model; parameters: species or system mice
Description: In vivo compatibility studies. All experimental procedures were approved by the Rice University Institutional Animal Care and Use Committee (IACUC) and performed according to the Animal Welfare Act and NIH guidelines. Female C57BL/6 mice from 8 to 12 weeks were purchased from Charles River (Wilmington, MA). Mice were injected with 4 implants of 100 μL 1% by weight O5 hydrogel in the dorsal subcutaneous space using a 26-gauge needle. At days 3, 7, and 14 mice were euthanized, and implants were extracted, fixed with 10% neutral buffered formalin and processed into paraffin blocks. Tissue was sectioned at 5 μm thickness and stained with hematoxylin and eosin, and Masson's trichome under standard procedures. For fluorescent immunostaining, tissue sections were deparaffinized, hydrated and antigens were retrieved by boiling in sodium citrate buffer (10 mM sodium citrate, 0.05% Tween 20 at pH 6.0). Tissues were permeabilized with 0.5% Triton X and blocked with 1% BSA in PBS for 30 min. Tissues were incubated overnight at 4° C. with rat anti-Mouse F4/80 monoclonal antibody (1:50, clone BM8, eBioscience™, Cat #14-4801-82). Then, samples were incubated for 1 hour with goat anti-rat AlexaFluor® 568 (1:500, Invitrogen), followed by mounting with ProLong® Gold Antifade reagent with DAPI. Tissue slides were analyzed by confocal fluorescent microscopy.

SMILES: CC(=O)N1C[C@H](O)C[C@H]1C(=O)N1C[C@H](O)C[C@H]1C(=O)N1C[C@H](O)C[C@H]1C(=O)N1C[C@H](O)C[C@H]1C(=O)N1C[C@H](O)C[C@H]1C(=O)N[C@@H](CO)C(=O)N[C@@H](CC(C)C)C(=O)N[C@@H](CO)C(=O)N[C@@H](CC(C)C)C(=O)N[C@@H](CO)C(=O)N[C@@H](CC(C)C)C(=O)N[C@@H](CO)C(=O)N[C@@H](CC(C)C)C(=O)N[C@@H](CO)C(=O)N[C@@H](CC(C)C)C(=O)N[C@@H](CO)C(=O)N[C@@H](CC(C)C)C(=O)N1C[C@H](O)C[C@H]1C(=O)N1C[C@H](O)C[C@H]1C(=O)N1C[C@H](O)C[C@H]1C(=O)N1C[C@H](O)C[C@H]1C(=O)N1C[C@H](O)C[C@H]1C(N)=O [Peptide O5, Ac-OOOOOSLSLSLSLSLSLOOOOO-CONH2] (Ac-[Hyp][Hyp][Hyp][Hyp][Hyp]SLSLSLSLSLSL[Hyp][Hyp][Hyp][Hyp][Hyp]-NH2)
- state of the peptide at 10 mg/mL ([1]; 10 mg/mL): forms a hydrogel
- hydrogelation in cell culture media ([1]; 1% by weight in 149 mM sucrose and 0.5×HBSS, ultrasonication): forms a self-supportive hydrogel
- hydrogel formation at acidic, neutral and basic pH ([1]; 1% by weight, pH adjusted with HCl or NaOH, inverted-vial test / CD): remains a hydrogel at acidic, neutral and basic pH; also recorded: remains a hydrogel at all pH
- pH range over which peptide remains a hydrogel ([1]; also in deionized water, PBS and HBSS): 3-11
- loss modulus (G″) [2]: 1.7±0.5 Pa
- storage modulus (G′) [2]: 23.3±8.7 Pa
- % PPII [3]: 50%
- % α-helix [3]: 40.5%
- % β-sheet [3]: 9.5%
- Predominant Structure [3]: PPII
- viability at 24 h, 1 % by weight [4]: ~70%
- cell spreading and adhesion to the material (NIH-3T3 fibroblasts; 5 days encapsulated, actin staining): do not spread and adhere to the material
- cell recovery after extraction from the hydrogel (NIH-3T3 fibroblasts; after 5 days of culture): recover, grow, and proliferate
- percentage of viable cells (NIH-3T3 fibroblasts; day 3 compared with day 1): relatively unchanged
- cytotoxicity / viability over the culture (NIH-3T3 fibroblasts; days 1 to 5, 1 wt.% hydrogel): good initial viability, which remains constant throughout the experiment
- cell proliferation / viable cell density in the gel (NIH-3T3 fibroblasts; up to day 5): not observed to proliferate
- inflammatory response ([5]; compared to K2 hydrogel): weaker inflammatory response
- implant degradation ([5]; day 14): almost completely degraded
- collagen deposition / remodeling ([5]; day 14, Masson's trichrome): natural collagen is observed
- fibrous encapsulation ([5]; subcutaneous implant, in contrast with PEG): not fibrously encapsulated
